Data set [1] is classed as cell-based, African green monkey. To be noted: African green monkey.
The test system of data set [2] is M. tuberculosis Erdman (ATCC 35801). Description: Microplate Alamar Blue Assay. It counts as cell-based, Mycobacterium tuberculosis. To be noted: for MIC, Erdman: MABA, concentration giving ≥ 90% inhibition, 7 days, 37 °C, triplicate; for SI (selectivity index = IC50/MIC), Erdman: Vero IC50 / MIC Erdman, limited by 120 μg/ml cytotoxicity cutoff. On the technique in general: The colour change of resazurin is a common sign of viable cells or microbes.

Data set [3] has as its system M. tuberculosis H37Rv (ATCC 27294). Put plainly: Microplate Alamar Blue Assay. It counts as cell-based, Mycobacterium tuberculosis. To be noted: for MIC, H37Rv: MABA, concentration giving ≥ 90% inhibition, 7 days, 37 °C, triplicate; for SI (selectivity index = IC50/MIC), H37Rv: Vero IC50 / MIC H37Rv, limited by 120 μg/ml cytotoxicity cutoff.
Data set [4] concerns Mycobacterium tuberculosis (H37Rv and ERDMAN). Description: MABA, result stated for both strains without assignment. It counts as cell-based.
For data set [5], the system named is Vero cells. The data set is classed as cell-based, African green monkey. To be noted: Vero cells, 72 hours; cutoff 120 μg/ml.

Values after ≈ are worked out from the molar mass of the structure shown.

Usually IC50 stands for the midpoint of a concentration-inhibition curve. A word on the MIC: it is the lowest concentration that inhibits growth of the organism.

Turning to `C=C[C@@H](O)C#CC#C[C@@H](O)/C=C\CCCCCCC` [Compound 1, falcarindiol], the IC50 at 72 h in data set [1] is above 120 µg/mL. In addition, in data set [2], the “MIC, Erdman” value turned out to be 6.0 µg/mL (≈ 23 µM) and the “SI (selectivity index = IC50/MIC), Erdman” value is recorded as above 19. Moreover, in data set [3], the “MIC, H37Rv” value amounted to 26.7 µg/mL (≈ 103 µM) and the “SI (selectivity index = IC50/MIC), H37Rv” value is on record as above 4. In data set [4], this compound registered an MIC of 1.4 to 26.7 µg/mL (≈ 5.38 to 103 µM).

As for `C=CC(O)C#CC#CC(O)/C=C\CCCCCCCCOC(C)=O` (stereo not drawn) [Compound 2, 9Z,17-octadecadiene-12,14-diyne-1,11,16-triol,1-acetate], the “Cytotoxicity IC50” value in data set [5] is above 120 µg/mL. Further, in data set [2], the “MIC, Erdman” value was 1.4 µg/mL (≈ 4.21 µM) and the “SI (selectivity index = IC50/MIC), Erdman” value is reported as above 100. Also, in data set [3], the “MIC, H37Rv” value amounted to 25.3 µg/mL (≈ 76.1 µM) and the “SI (selectivity index = IC50/MIC), H37Rv” value is listed as above 4.

For the compound `CCCCCCC/C=C\[C@H](O)C#CC#C[C@@H](O)CC` [Compound 3, oplopandiol], in data set [1], the IC50 at 72 h is above 120 µg/mL. Moreover, in data set [2], the “MIC, Erdman” value came to 49.5 µg/mL (≈ 189 µM) and the “SI (selectivity index = IC50/MIC), Erdman” value is listed as above 2. Also, in data set [3], the “MIC, H37Rv” value is 50.2 µg/mL (≈ 191 µM) and the “SI (selectivity index = IC50/MIC), H37Rv” value is above 2.

Turning to `C=CC(O)C#CC#CC(O)C1OC1CCCCCCC` (stereo not drawn) [Compound 4, heptadeca-1-ene-9,10-epoxy-4,6-diyne-3,8-diol], the “Cytotoxicity IC50” value in data set [5] was above 120 µg/mL.

For the compound `CCCCCCC/C=C\C(O)C#CC#CC(=O)CCOC` (stereo not drawn) [Compound 5, 8-hydroxy-1-methoxy-(Z)-9-heptadecene-4,6-diyn-3-one], in data set [1], the IC50 at 72 h is above 120 µg/mL. Further, in data set [2], the “MIC, Erdman” value is listed as “above 60 μg/mL”. In data set [3], the “MIC, H37Rv” value is “above 60 μg/mL”. The same compound registered an MIC in data set [4] above 60 µg/mL.

The compound `CO[C@H]1/C=C/O[C@@]2(C)Oc3c(C)c(O)c4c(O)c(c(/C=N/N5CCN(C)CC5)c(O)c4c3C2=O)NC(=O)/C(C)=C\C=C\[C@H](C)[C@H](O)[C@@H](C)[C@@H](O)[C@@H](C)[C@H](OC(C)=O)[C@@H]1C` [RMP, Rifampin, reference compound] had a half-maximal inhibitory concentration (IC50) at 72 h in data set [1] of 112 µg/mL (≈ 136 µM). For the same compound, the “SI (selectivity index = IC50/MIC), Erdman” value in data set [2] is given as 2232. In addition, the “SI (selectivity index = IC50/MIC), H37Rv” value in data set [3] stood at 1860.
